# Reference: patent US9573960B2, “Glioblastoma inhibiting compounds and their use” (Life & Brain GmbH, priority 2011, dated 2017)
# What was measured:
# [1] = tested on: patient-specific primary human glioblastoma cells (pGBMs); experiment: Pharmacodynamic analysis of GAA and GA, AlamarBlue (IMC50); format: cell-based; conditions: for inhibition of the metabolic activity of pGBMs: FIG. 14A
# Experimental: To validate the results obtained from primary screening, these compounds were purchased from independent suppliers (FIG. 13). Pharmacodynamic analysis was conducted by determining the concentrations that decreased the metabolic activity of pGBMs to 50% control levels (IMC50). […] For further analysis, pGBMs were collected at five days following single-dose in vitro application of the respective compound.
# (§1) Considering the cellular and genetic diversity that characterizes GBM, we next investigated GAA's pharmacological effect in 17 pGBM samples derived from 11 patients (see Table 2 for list of samples and patient data). […] Next, pair-wise comparison of GAA-pharmacodynamics was performed in pGBMs to stratify results according to key clinical constellations (Bredel et al., 2011; Glas et al., 2010; Simpson et al., 2006; Weller et al., 2010). Glioblastoma samples derived from (i) the tumor center vs. periphery region of the same patient, (ii) primary vs. recurrent disease of the same patient, (iii) MGMT-promoter hypermethylated vs. unmethylated tissue, (iv) p53 wild type vs. p53 mutated samples, as well as from (v) NFKBIA wild type vs. NFKBIA deleted genotypes.
# For pharmacodynamic analysis, 5×10^4 cells were plated in 12-well-plates at 24 hours before application of compound-series. […] Experiments were performed in triplicates. IMC50 was defined as the compound concentration that reduced the metabolic activity by 50% compared to control conditions and determined via data analysis in GraphPad Prism 4.0.
# [2] = tested on: CD133+ vs. CD133− pGBM cells; experiment: CD133+ vs CD133- pGBM cells, metabolic activity and cell confluency; format: cell-based, human; conditions: IMC50, 5 days after single exposure
# Text: FIG. 19: Preferred targeting of CD133^+ GBM cells by Gambogig acid amide. (A) FACS-based identification and sorting of CD133^+ subpopulations from pGBMs (#106, top; #058, bottom). Note the respective frequency of CD133^+ cells is indicated within the panel). (B) Relative metabolic activity and cell confluency of CD133-positive vs. CD133-negative pGBM cells determined at 5 days after single exposure of Gambogic acid (IMC50, top) and Gambogic acid amide (IMC50, bottom). Note the selective sensitivity of CD133^+ cells in response to application of Gambogic acid amide.
# To further corroborate the cancer stem cell-specific inhibitory activity of GAA, we selected CD133-positive and -negative cell populations from pGBMs (FIG. 19). CD133^+ cells are known among glioblastoma samples to represent a minority of tumorigenic stem-like phenotypes (Singh et al., 2004). Comparative evaluation of the inhibitory effects induced by GAA and GA on CD133^+ vs. CD133^− pGBM cells confirmed our assumption.
# For fluorescence-activated cell separation (FACS), cells were stained with CD133/2-PE or with CD133/2-APC (both 1:20; Miltenyi Biotech) and sorted on a BD FACS DiVa Cell Sorter (Becton Dickinson).
# pGBMs (#046) = experiment: Orthotopic xenotransplantation of pre-treated pGBMs; format: in vivo, Rag2Il2rg−/− mice; conditions: pGBMs pre-treated 5 days at IMC50, 10^6 cells into striatum, vs DMSO
# Experimental: FIG. 18: Gambogig acid amide decreases the tumor-initiating potential of pGBMs. pGBMs (#046) were treated with IMC50 concentrations of the respective compounds for 5 days in vitro. […] surviving vital cells were subsequently collected and injected into the striatum of adult immunocompromised mice (n=5 for each experiment). (A) Kaplan-Meier curves show no significant survival advantage upon injection of pGBMs pre-treated with gambogic acid (dotted) vs. DMSO controls (solid).
# Cells were harvested, counted and re-suspended in 0.1% DNase/PBS. Cellular viability was confirmed via trypan blue exclusion. 10^6 DMSO-control-, gambogic acid or gambogic acid amide-pretreated pGBMs were injected stereotactically into the striatum of 12 week old Rag2Il2rg^−/− mice (0.8 mm anterior, 2 mm lateral, 3 mm deep). Mice were monitored daily and euthanized upon presentation with signs of distress/neurological symptoms or significant weight loss. For subsequent histological analysis, brains were removed, cryoprotected, and serially cut on a cryostat (Leica) at 20 μm thickness. Every fifth section underwent routine H&E staining for histological analysis of tumor formation.
# [3] = tested on: LN229, T98G, U87, U138, and U373 cells; experiment: Pharmacodynamic analysis in commercial glioma/GBM cell lines; format: cell-based; conditions: compared with pGBM IMC50's
# Experimental: as §1
# For pharmacodynamic analysis, 5×10^4 cells were plated in 12-well-plates at 24 hours before application of compound-series. AlamarBlue®-based analysis was conducted at 5 days post treatment. Experiments were performed in triplicates. IMC50 was defined as the compound concentration that reduced the metabolic activity by 50% compared to control conditions and determined via data analysis in GraphPad Prism 4.0.
# [4] = tested on: self-renewing, multipotent cells among pGBMs; experiment: Neurosphere assay after GA or GAA pre-treatment; format: cell-based, human; conditions: single pre-treatment, vital cells collected at day 5
# Text: In a next series of experiments we aimed to determine the influence of the compounds on the activity of tumor-initiating cells (TICs). TICs embody a severe functional consequence of intra-tumor heterogeneity as, at least in human glioblastoma, it is anticipated that they are represented by a small subpopulation of stem-like, i.e. self-renewing and multipotent cells (e.g. Sties and Rowitch, 2008; Zhou et al., 2009). In previous work, we established their frequencies in the range from 0.25 to 1% among culture passage 5-10 pGBMs (see Glas et al., 2010). To estimate potential compound-induced alterations to the pool of self-renewing and multipotent cells in pGBMs, the neurosphere assay (NSA) was applied as recently described (Scheffler et al., 2005; Glas et al., 2010). Heterogeneous pGBM samples (#'s 046, 078, 106) were exposed to the compounds, vital cells were collected at day 5, and processed under non-adherent conditions in the NSA (neurosphere assay, see methods).
# The neurosphere assay was performed to estimate the frequency of self-renewing clonogenic cells according to established protocols (Glas et al., 2010; Scheffler et al., 2005). Neurospheres were quantified at 21 days in culture, triturated to a single cell suspension, and re-plated for analysis of the secondary and tertiary neurospheres. […]
# [5] = tested on: four patient-specific primary GBM cultures; conditions: 1 μM
# Experimental: (§2) Before screening, cell number was titrated for each cell line separately to ensure that cell proliferation remained in a linear-exponential phase throughout the experiment. 24 hours after seeding 2−3×10^3 cells/well into laminin/poly-L-ornithine coated 96-well plates, primary cultures were treated with 2 nM, 1 μM or 10 μM of each compound (stock solution 10 mM in DMSO). As a reference we treated cells with 50 μM and 500 μM temozolomide (TMZ, SigmaAldrich, Taufkirchen, Germany; stock solution of 100 mM in DMSO). Control cells were treated with 0.5-0.01% DMSO. Six days after application, cell viability was determined using the AlamarBlue® assay according to the manufacturers recommendations (Invitrogen, Karlsruhe, Germany). Fluorescence was measured using an Infinite200 microplate reader (Tecan, Crailsheim, Germany) at Xex=540 nm and Xem=590 nm. Experiments were performed in triplicates for each sample.
# (§3) To identify cytotoxic and cytostatic compounds, we conducted in vitro drug-screening assays in four different patient-specific primary GBM cultures (see Table 1 for basic characterization of research specimens).
# (§4) The compound library was screened at three different concentrations (10 μM, 1 μM, 2 nM). The relative metabolic activity was determined after a 5-day incubation with compounds. […] For reference, we applied 50 μM (reported plasma peak concentration) and 500 μM of temozolomide (TMZ, as described in Beier et al., 2008), the current standard chemotherapeutic GBM drug to our cells. […] However, “hits” in the setting of a primary screening were defined as a reduction of the relative metabolic activity under the level of 50% of DMSO-treated control cells.
# [6] = tested on: four patient-specific primary GBM cultures; experiment: cells; conditions: Homo sapiens, read-out: cellular viability of pGBMs, control levels
# Experimental: as §2, §3, §4
structure (smiles),measurement,setting,value
"CC(C)=CCC[C@]1(C)C=Cc2c(O)c3c(c(CC=C(C)C)c2O1)O[C@]12C(=C[C@@H]4CC1C(C)(C)O[C@@]2(C/C=C(/C)C(N)=O)C4=O)C3=O [GAA, Gambogic acid amide]",inhibition of the metabolic activity of pGBMs,[1],effectively and to a comparable degree
same,time of induction of inhibitory activity,"[1]; day 1, 2 or 5 following exposure, versus Gambogic acid",earlier time point
same,IC50,"[1]; pGBM #106, day 5",514 nM
same,IC50,"[1]; pGBM #132, day 5",78 nM
same,inhibitory activity compared with GA (dose-response),[1]; triplicate analysis for each sample,consistently at lower concentrations
same,selective reduction of cell growth and viability among CD133+ vs CD133− cells,[2],significantly stronger reduction
same,survival of animals that received pre-treated pGBMs,pGBMs (#046),significantly increased survival
same,inhibitory activity in commercial glioma/GBM cell lines,[3],Comparable results
same,"frequency of self-renewing, multipotent cells (primary, secondary, tertiary spheres)",[4],considerably reduced frequency
same,"cellular viability of pGBMs, control levels",[5],below 50%
"CC(C)=CCC[C@]1(C)C=Cc2c(O)c3c(c(CC=C(C)C)c2O1)O[C@]12C(=C[C@@H]4C[C@H]1C(C)(C)O[C@@]2(C/C=C(/C)C(=O)O)C4=O)C3=O [GA, Gambogic acid]",inhibition of the metabolic activity of pGBMs,[1],effectively and to a comparable degree
same,selective reduction of cell growth and viability among CD133+ vs CD133− cells,[2],could not be revealed
same,survival of animals that received pre-treated pGBMs,pGBMs (#046),not evident
same,"frequency of self-renewing, multipotent cells (primary, secondary, tertiary spheres)",[4],no GA-induced alteration
same,viability at 1 µM,[6],< 50%
